# Laboratory results reported in US8778973B2, “Alkene oxindole derivatives” (Hoffmann-La Roche Inc., priority 2009, dated 2014).
# Test system: Recombinant human AMPK proteins (α1β1γ1, α2β1γ1, α1(1-335), α1(1-394) or α2(1-394))
# Assay: Scintillation Proximity Assay (SPA) of AMPK activation
# Assay type: biochemical
# Details: activator concentration for 50% of maximal enzyme activity; 50 nM recombinant AMPK, 2 μM ATP, 30° C., 2 hr
# Method: Recombinant human AMPK α1β1γ1, α2β1γ1 or AMPK α subunit truncations α1(1-335), α1(1-394) and α2(1-394) were constructed, expressed and purified as described previously (Pang, T., Zhang, Z. S., Gu, M., Qiu, B. Y., Yu, L. F., Cao, P. R., Shao, W., Su, M. B., Li, J. Y., Nan, F. J., and Li, J. (2008)). Rat liver AMPK heterotrimer enzyme was obtained from Upstate (Billerica, Mass., U.S.A.).
# Scintillation Proximity Assay
# Before the Scintillation Proximity Assay (SPA) assay, 200 nM recombinant AMPK proteins (α1β1γ1, α2β1γ1, α1(1-335), α1(1-394) or α2(1-394)) were fully phosphorylated as described previously (Pang et al., 2008). SPA reactions were performed in 96-well plates at a final volume of 501 containing 20 mM Tris-HCl pH 7.5, 5 mM MgCl2, 1 mM DTT, 2 μM biotin-SAMS, 2 μM ATP, 0.2 μCi/well [γ-^33P]ATP, and various amount of activator. Reactions were initiated by the addition of 50 nM recombinant AMPK proteins to the reaction solutions and incubated at 30° C. for 2 hr. After that, reactions were terminated by the addition of 401 stop solution containing 80 μg streptavidin-coated SPA beads per well, 50 mM EDTA, 0.1% Triton X-100 in PBS, pH 7.5 and incubated for 1 hr. Finally, a 160 ul suspension solution containing 2.4 M CsCl, 50 mM EDTA, and 0.1% Triton X-100 in PBS (pH 7.5) was added to the reaction solution to suspend SPA beads completely. SPA signals were determined with a Wallac MicroBeta plate counter (PerkinElmer) 30 min later for calculation of the amount of product formed. The amount of products formed in 2 hr was plotted against activator concentrations to determine the effective concentration of the activator (EC50) required for 50% of maximal enzyme activity.
# Compounds as described above have EC50 values between 0.5 uM and 50 uM, preferred compounds have EC50 values between 0.5 uM and 10 uM, particularly preferred compounds have EC50 values between 0.5 uM and 1 uM.
row,Structure (SMILES),EC50 [µM]
1,"COC(=O)c1cccc(CN2C(=O)/C(=C(\c3ccccc3)c3ccccc3Br)c3ccccc32)c1 [Example 23, 3-{3-[1-(2-Bromo-phenyl)-1-phenyl-meth-(E)-ylidene]-2-oxo-2,3-dihydro-indol-1-ylmethyl}-benzoic acid methyl ester]",6.97
2,"COC(=O)c1cccc(CN2C(=O)/C(=C(\c3ccccc3)c3ccc(F)c(F)c3)c3ccccc32)c1 [Example 15, 3-{3-[1-(3,4-Difluoro-phenyl)-1-phenyl-meth-(E)-ylidene]-2-oxo-2,3-dihydro-indol-1-ylmethyl}-benzoic acid methyl ester]",2.47
3,"COC(=O)c1cccc(CN2C(=O)/C(=C(\c3ccccc3)c3ccc(Cl)cc3)c3c(F)cccc32)c1 [Example 25, 3-{3-[1-(4-Chloro-phenyl)-1-phenyl-meth-(E)-ylidene]-4-fluoro-2-oxo-2,3-dihydro-indol-1-ylmethyl}-benzoic acid methyl ester]",2.73
4,"COC(=O)c1cccc(CN2C(=O)/C(=C(/c3ccc(Cl)cc3)c3ccccc3OC)c3ccccc32)c1 [Example 10, 3-{3-[1-(4-Chloro-phenyl)-1-(2-methoxy-phenyl)-meth-(Z)-ylidene]-2-oxo-2,3-dihydro-indol-1-ylmethyl}-benzoic acid methyl ester]",4.44
5,"COC(=O)c1cccc(CN2C(=O)/C(=C(\c3ccccc3)c3cc(OC)c(OC)c(OC)c3)c3ccccc32)c1 [Example 14, 3-{2-Oxo-3-[1-phenyl-1-(3,4,5-trimethoxy-phenyl)-meth-(E)-ylidene]-2,3-dihydro-indol-1-ylmethyl}-benzoic acid methyl ester]",4.34
6,"COC(=O)c1ccc(CN2C(=O)/C(=C(\c3ccccc3)c3ccc(Cl)cc3)c3ccccc32)cc1 [Example 21, 4-{3-[1-(4-Chloro-phenyl)-1-phenyl-meth-(E)-ylidene]-2-oxo-2,3-dihydro-indol-1-ylmethyl}-benzoic acid methyl ester]",6.07
7,"O=C(O)c1cccc(CN2C(=O)/C(=C(\c3ccccc3)c3ccc(Cl)cc3)c3c(F)cccc32)c1 [Example 60, 3-{3-[1-(4-Chloro-phenyl)-1-phenyl-meth-(E)-ylidene]-4-fluoro-2-oxo-2,3-dihydro-indol-1-ylmethyl}-benzoic acid]",1.24
8,"COC(=O)c1cccc(CN2C(=O)/C(=C(\c3ccccc3)c3ccc(C#N)cc3)c3ccccc32)c1 [Example 11, 3-{3-[1-(4-Cyano-phenyl)-1-phenyl-meth-(E)-ylidene]-2-oxo-2,3-dihydro-indol-1-ylmethyl}-benzoic acid methyl ester]",3.11
9,"O=C(O)c1ccccc1CN1C(=O)/C(=C(\c2ccccc2)c2ccc(Cl)cc2)c2ccccc21 [Example 56, 2-{3-[1-(4-Chloro-phenyl)-1-phenyl-meth-(E)-ylidene]-2-oxo-2,3-dihydro-indol-1-ylmethyl}-benzoic acid]",4.24
10,"COC(=O)c1cccc(CN2C(=O)/C(=C(/c3ccccc3)c3ccc(Cl)cc3)c3ccccc32)c1 [Example 34, 3-{3-[1-(4-Chloro-phenyl)-1-phenyl-meth-(Z)-ylidene]-2-oxo-2,3-dihydro-indol-1-ylmethyl}-benzoic acid methyl ester]",1.8
11,"O=C(O)c1cccc(CN2C(=O)/C(=C(\c3ccccc3)c3cc(Cl)cc(Cl)c3)c3ccccc32)c1 [Example 54, 3-{3-[1-(3,5-Dichloro-phenyl)-1-phenyl-meth-(E)-ylidene]-2-oxo-2,3-dihydro-indol-1-ylmethyl}-benzoic acid]",5.14
12,"O=C(O)c1ccc(CN2C(=O)/C(=C(\c3ccccc3)c3ccc(Cl)cc3)c3ccccc32)cc1 [Example 57, 4-{3-[1-(4-Chloro-phenyl)-1-phenyl-meth-(E)-ylidene]-2-oxo-2,3-dihydro-indol-1-ylmethyl}-benzoic acid]",2.17
13,"COC(=O)c1cccc(CN2C(=O)/C(=C(\c3ccccc3)c3cc(C(F)(F)F)ccc3Cl)c3ccccc32)c1 [Example 24, 3-{3-[1-(2-Chloro-5-trifluoromethyl-phenyl)-1-phenyl-meth-(E)-ylidene]-2-oxo-2,3-dihydro-indol-1-ylmethyl}-benzoic acid methyl ester]",4.82
14,"CC(C)c1ccc(/C(=C2/C(=O)N(Cc3cccc(C(=O)O)c3)c3ccccc32)c2ccccc2)cc1 [Example 71, 3-{3-[1-(4-Isopropyl-phenyl)-1-phenyl-meth-(E)-ylidene]-2-oxo-2,3-dihydro-indol-1-ylmethyl}-benzoic acid]",4.02
15,"O=C(O)c1cccc(CN2C(=O)/C(=C(\c3ccccc3)c3ccc(F)c(Cl)c3)c3ccccc32)c1 [Example 50, 3-{3-[1-(3-Chloro-4-fluoro-phenyl)-1-phenyl-meth-(E)-ylidene]-2-oxo-2,3-dihydro-indol-1-ylmethyl}-benzoic acid]",5.89
16,"CC(C)/C(=C1\C(=O)N(Cc2cccc(C(=O)O)c2)c2ccccc21)c1ccc(C(F)(F)F)cc1 [Example 105, 3-{3-[2-Methyl-1-(4-trifluoromethyl-phenyl)-prop-(E)-ylidene]-2-oxo-2,3-dihydro-indol-1-ylmethyl}-benzoic acid]",2.95
17,"O=C(O)c1cccc(CN2C(=O)/C(=C(\c3ccccc3)c3ccccc3OC(F)(F)F)c3ccccc32)c1 [Example 49, 3-{2-Oxo-3-[1-phenyl-1-(2-trifluoromethoxy-phenyl)-meth-(E)-ylidene]-2,3-dihydro-indol-1-ylmethyl}-benzoic acid]",1.75
18,"COC(=O)c1cccc(CN2C(=O)/C(=C(\c3ccccc3)c3cccc(Cl)c3)c3ccccc32)c1 [Example 16, 3-{3-[1-(3-Chloro-phenyl)-1-phenyl-meth-(E)-ylidene]-2-oxo-2,3-dihydro-indol-1-ylmethyl}-benzoic acid methyl ester]",1.53
19,"O=C(O)c1cccc(CN2C(=O)/C(=C(\c3ccccc3)c3ccc(Cl)cc3)c3cccc(F)c32)c1 [Example 73, 3-{3-[1-(4-Chloro-phenyl)-1-phenyl-meth-(E)-ylidene]-7-fluoro-2-oxo-2,3-dihydro-indol-1-ylmethyl}-benzoic acid]",5.14
20,"CC(C)NC(=O)c1cccc(CN2C(=O)/C(=C(\c3ccccc3)c3ccc(Cl)cc3)c3ccccc32)c1 [Example 37, 3-{3-[1-(4-Chloro-phenyl)-1-phenyl-meth-(E)-ylidene]-2-oxo-2,3-dihydro-indol-1-ylmethyl}-N-isopropyl-benzamide]",4.49
21,"COc1ccc2c(c1)/C(=C(/c1ccccc1)c1ccc(Cl)cc1)C(=O)N2Cc1cccc(C(=O)O)c1 [Example 58, 3-{3-[1-(4-Chloro-phenyl)-1-phenyl-meth-(E)-ylidene]-5-methoxy-2-oxo-2,3-dihydro-indol-1-ylmethyl}-benzoic acid]",4.87
22,"O=C(O)c1cccc(CN2C(=O)/C(=C(\c3ccccc3)c3cc(C(F)(F)F)ccc3Cl)c3ccccc32)c1 [Example 64, 3-{3-[1-(2-Chloro-5-trifluoromethyl-phenyl)-1-phenyl-meth-(E)-ylidene]-2-oxo-2,3-dihydro-indol-1-ylmethyl}-benzoic acid]",6.63
23,"COC(=O)c1cccc(CN2C(=O)/C(=C(/c3ccccc3)C(C)C)c3ccccc32)c1 [Example 85, 3-{3-[2-Methyl-1-phenyl-prop-(E)-ylidene]-2-oxo-2,3-dihydro-indol-1-ylmethyl}-benzoic acid methyl ester]",4.9
24,"CSc1ccccc1/C(=C1/C(=O)N(Cc2cccc(C(=O)O)c2)c2ccccc21)c1ccccc1 [Example 62, 3-{3-[1-(2-Methylsulfanyl-phenyl)-1-phenyl-meth-(E)-ylidene]-2-oxo-2,3-dihydro-indol-1-ylmethyl}-benzoic acid]",2.33
25,"COC(=O)c1ccc(CN2C(=O)/C(=C(\c3ccccc3)c3ccc(Cl)cc3)c3ccccc32)nc1 [Example 38, 6-{3-[1-(4-Chloro-phenyl)-1-phenyl-meth-(E)-ylidene]-2-oxo-2,3-dihydro-indol-1-ylmethyl}-nicotinic acid methyl ester]",2.91
26,"COC(=O)c1cccc(CN2C(=O)/C(=C(\c3ccccc3)c3cc(Cl)cc(Cl)c3)c3ccccc32)c1 [Example 19, 3-{3-[1-(3,5-Dichloro-phenyl)-1-phenyl-meth-(E)-ylidene]-2-oxo-2,3-dihydro-indol-1-ylmethyl}-benzoic acid methyl ester]",1
27,"CC(C)/C(=C1\C(=O)N(Cc2cccc(C(=O)O)c2)c2ccccc21)c1ccsc1 [Example 106, 3-{3-[2-Methyl-1-thiophen-3-yl-prop-(E)-ylidene]-2-oxo-2,3-dihydro-indol-1-ylmethyl}-benzoic acid]",1.61
